{
  "source": "patent US20240287138A1",
  "about": "“CYCLIC PEPTIDES FOR INHIBITING TNF RECEPTOR 1 ACTIVITY” (Merck Sharp & Dohme LLC, priority 2023, published 2024)",
  "key": {"[1]": {"biological_target": "T1, human soluble TNFR1 (sTNFR1) (Homo sapiens, UniProt P19438)", "T1 construct": "made in house; host or cells: Sf21 (baculovirus)", "T1 sequence (P19438 with tags, fused parts or gaps)": "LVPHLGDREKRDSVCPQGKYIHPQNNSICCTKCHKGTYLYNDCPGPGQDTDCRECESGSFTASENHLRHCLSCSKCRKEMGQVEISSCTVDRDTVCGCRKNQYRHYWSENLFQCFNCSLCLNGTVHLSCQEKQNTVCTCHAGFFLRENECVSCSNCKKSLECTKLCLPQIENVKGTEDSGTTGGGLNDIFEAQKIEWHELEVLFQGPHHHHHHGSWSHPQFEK", "assay": "Human sTNFR1-peptide displacement assay (LanthaScreen Eu TR-FRET binding assay)", "procedure,_shortened": "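Readout is the 665/615 nm TR-FRET ratio (Eu anti-His donor, streptavidin-Alexa647 acceptor), normalized to DMSO and saturating displacer, fit by Morrison-based five-parameter logistic for Kd^app. His-tagged sTNFR1 (1-211) prebound to 100 nM biotinylated peptide SEQ ID NO.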"}, "[2]": {"biological_target": "T2, human TNFR1 extracellular domain (ECD) protein (Homo sapiens, UniProt P19438)", "T2 construct": "HRV 3C protease cleavage site (C); 6His (C, cleaved yes); made in house; host or cells: Sf21 insect cells (baculovirus), secreted", "T2 sequence (P19438 30-211)": "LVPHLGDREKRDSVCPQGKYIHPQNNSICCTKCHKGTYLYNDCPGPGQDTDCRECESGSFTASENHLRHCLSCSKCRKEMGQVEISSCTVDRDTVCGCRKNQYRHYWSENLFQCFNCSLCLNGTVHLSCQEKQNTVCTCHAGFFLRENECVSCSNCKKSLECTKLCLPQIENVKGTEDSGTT", "assay": "SPR binding affinity to captured human TNFR1 ECD", "procedure,_shortened": "(§1)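 Peptides are tested against captured biotin-tagged human TNFR1 ECD, with parallel TNFR2 ECD binding to check selectivity. Buffer: 10 mM HEPES pH 7.4, 150 mM NaCl, 3 mM EDTA, 0.05% P20, 2% DMSO.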"}, "[3]": {"biological_target": "T3, human TNFR2 ECD protein (Homo sapiens, UniProt P20333)", "T3 construct": "HRV 3C protease cleavage site (C); 6His (C, cleaved yes); made in house; host or cells: Sf21 insect cells (baculovirus), secreted", "T3 sequence (P20333 23-257)": "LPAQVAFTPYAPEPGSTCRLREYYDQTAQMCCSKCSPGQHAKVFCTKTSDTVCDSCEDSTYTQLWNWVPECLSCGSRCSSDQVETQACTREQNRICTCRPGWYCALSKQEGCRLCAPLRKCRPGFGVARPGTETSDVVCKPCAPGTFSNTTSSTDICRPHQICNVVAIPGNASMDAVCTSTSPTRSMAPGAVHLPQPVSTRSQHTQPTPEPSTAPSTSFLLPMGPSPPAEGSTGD", "assay": "SPR off-target binding (selectivity) to human TNFR2 ECD", "procedure,_shortened": "as §1"}, "[4]": {"biological_target": "T4, TNFα-induced NF-κB signal transduction pathway (TNFR1 signaling) in THP-1 cells (Homo sapiens, UniProt P19438)", "T4 sequence (P19438 30-455)": "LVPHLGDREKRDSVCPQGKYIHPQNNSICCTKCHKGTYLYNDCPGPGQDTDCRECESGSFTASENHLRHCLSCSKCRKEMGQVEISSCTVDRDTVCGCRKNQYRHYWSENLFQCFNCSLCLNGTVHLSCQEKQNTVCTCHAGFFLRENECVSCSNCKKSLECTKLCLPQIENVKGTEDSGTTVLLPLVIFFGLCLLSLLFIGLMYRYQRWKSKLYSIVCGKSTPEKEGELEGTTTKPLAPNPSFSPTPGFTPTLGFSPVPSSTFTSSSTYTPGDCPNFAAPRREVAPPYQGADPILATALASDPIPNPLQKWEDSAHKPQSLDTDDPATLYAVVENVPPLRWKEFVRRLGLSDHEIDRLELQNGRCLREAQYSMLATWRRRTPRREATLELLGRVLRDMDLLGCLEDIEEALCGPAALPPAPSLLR", "assay": "THP-1 Lucia NF-κB reporter cell assay, inhibition of TNFα-induced NF-κB signaling", "assay_type": "cell-based", "details": "THP-1 NF-κB Lucia reporter cells, 10 ng/mL TNFα, 16-18 h, secreted luciferase; read-out: THP-1 IC50", "procedure,_shortened": "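IC50 from a 4-parameter logistic fit of secreted luciferase luminescence (QUANTI-Luc), normalised to min/max controls. Reporter THP-1 cells were exposed to peptides for 1 h at 37 °C before 10 ng/mL TNFα (final) was added overnight (16–18 h).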"}},
  "note": "Numbered stars: 1 amine (or outer) side, 2 acyl side, 3 side chain; on linkers, the order of the positions; unused ones are H or OH. Bridge positions count the residues as written; N and C are the ends. Square brackets hold non-standard residues; d marks the D form. Peptide text beside a SMILES is read from it. Trp(βS-Me,7-OMe) = COc1cccc2c([C@H](C)[C@H](N)C(=O)O)c[nH]c12; Phe(4-NHCONH2) = NC(=O)Nc1ccc(C[C@H](N)C(=O)O)cc1; Trp(7-CN) = N#Cc1cccc2c(C[C@H](N)C(=O)O)c[nH]c12; Trp(7-Cl) = N[C@@H](Cc1c[nH]c2c(Cl)cccc12)C(=O)O; Phe(4-CONH2) = NC(=O)c1ccc(C[C@H](N)C(=O)O)cc1; Phe(4-COOH) = N[C@@H](Cc1ccc(C(=O)O)cc1)C(=O)O; X25 = O=C(O)c1ccc(C[C@H](N[*:1])C(=O)[*:2])cn1; 4Pal(3S-Me) = C[C@@H](c1ccncc1)[C@H](N)C(=O)O; Trp(7-aza) = N[C@@H](Cc1c[nH]c2ncccc12)C(=O)O; Pip(5R-OH) = O=C(O)[C@@H]1CC[C@@H](O)CN1; X1 = O=C([C@@H]1CC[C@H](N[*:1])C1)[*:2]; Pip(4-aza) = O=C(O)[C@@H]1CNCCN1; 4Pal = N[C@@H](Cc1ccncc1)C(=O)O; NMeE = CN[C@@H](CCC(=O)O)C(=O)O; dHyp = O=C(O)[C@H]1C[C@H](O)CN1; Ahp(2) = CCCCC[C@H](N)C(=O)O; NMeS = CN[C@@H](CO)C(=O)O; αMeS = C[C@](N)(CO)C(=O)O; Nle = CCCC[C@H](N)C(=O)O; NEtG = CCNCC(=O)O; Sar = CNCC(=O)O",
  "data": [
    {"smiles": "CCCCC[C@@H]1NC(=O)[C@@H]2CC[C@@H](C2)NC(=O)[C@H]([C@@H](C)c2c[nH]c3c(OC)cccc23)NC(=O)CN(C)C(=O)[C@H](Cc2ccc(C(N)=O)cc2)NC(=O)[C@H](Cc2ccc(C(N)=O)cc2)NC(=O)[C@](C)(CO)NC(=O)[C@H](Cc2c[nH]c3c(C#N)cccc23)NC(=O)[C@H](Cc2ccc(C(=O)O)cc2)NC(=O)[C@H](CC(N)=O)NC(=O)[C@H]2C[C@H](O)CN2C(=O)[C@H](Cc2c[nH]c3ccccc23)NC(=O)[C@H](CC(N)=O)NC(=O)[C@H]([C@@H](C)c2ccncc2)NC1=O", "note": "[SEQ ID NO. 92] (cyclo([Ahp(2)][4Pal(3S-Me)]NW[dHyp]N[Phe(4-COOH)][Trp(7-CN)][αMeS][Phe(4-CONH2)][Phe(4-CONH2)][Sar][Trp(βS-Me,7-OMe)][X1]))", "values": [
      {"measurement": "Kd", "setting": "[1]", "result": 0.24, "unit": "nM"},
      {"measurement": "Kd", "setting": "[2]", "result": 0.05, "unit": "nM"},
      {"measurement": "Kd", "setting": "[3]", "result": "> 1000", "unit": "nM"}
    ]},
    {"smiles": "CCCC[C@@H]1NC(=O)CSC[C@@H](C(N)=O)NC(=O)[C@H]([C@@H](C)c2c[nH]c3c(OC)cccc23)NC(=O)CN(C)C(=O)[C@H](Cc2ccc(O)cc2)NC(=O)[C@H](Cc2ccc(C(=O)O)cc2)NC(=O)[C@](C)(CO)NC(=O)[C@H](Cc2c[nH]c3c(Cl)cccc23)NC(=O)[C@H](Cc2ccc(C(=O)O)cc2)NC(=O)[C@H](CC(N)=O)NC(=O)[C@H](CCC(=O)O)N(C)C(=O)[C@H](Cc2c[nH]c3ccccc23)NC(=O)[C@H](CO)N(C)C(=O)[C@H](Cc2ccc(C(N)=O)cc2)NC1=O", "note": "[SEQ ID NO. 123] ({CH2CO}-[Nle][Phe(4-CONH2)][NMeS]W[NMeE]N[Phe(4-COOH)][Trp(7-Cl)][αMeS][Phe(4-COOH)]Y[Sar][Trp(βS-Me,7-OMe)]C-NH2; thioether N-14)", "values": [
      {"measurement": "Kd", "setting": "[2]", "result": 0.32, "unit": "nM"},
      {"measurement": "Kd", "setting": "[3]", "result": "> 1000", "unit": "nM"},
      {"measurement": "IC50", "setting": "[4]", "result": 4.1, "unit": "nM"}
    ]},
    {"smiles": "CCCC[C@@H]1NC(=O)[C@@H]2CC[C@@H](C2)NC(=O)[C@H]([C@@H](C)c2c[nH]c3c(OC)cccc23)NC(=O)CN(C)C(=O)[C@H](Cc2ccc(O)cc2)NC(=O)[C@H](Cc2ccc(NC(N)=O)cc2)NC(=O)[C@](C)(CO)NC(=O)[C@H](Cc2c[nH]c3c(Cl)cccc23)NC(=O)[C@H](Cc2ccncc2)NC(=O)[C@H](CC(N)=O)NC(=O)[C@H](CCC(=O)O)N(C)C(=O)[C@H](Cc2c[nH]c3ccccc23)NC(=O)[C@@H]2CNCCN2C(=O)[C@H](Cc2ccncc2)NC1=O", "note": "[SEQ ID NO. 127] (cyclo([4Pal][Trp(7-Cl)][αMeS][Phe(4-NHCONH2)]Y[Sar][Trp(βS-Me,7-OMe)][X1][Nle][4Pal][Pip(4-aza)]W[NMeE]N))", "values": [
      {"measurement": "Kd", "setting": "[2]", "result": 0.18, "unit": "nM"},
      {"measurement": "Kd", "setting": "[3]", "result": "> 1000", "unit": "nM"},
      {"measurement": "IC50", "setting": "[4]", "result": 0.8, "unit": "nM"}
    ]},
    {"smiles": "CCCC[C@@H]1NC(=O)[C@@H]2CC[C@@H](C2)NC(=O)[C@H]([C@@H](C)c2c[nH]c3c(OC)cccc23)NC(=O)CN(C)C(=O)[C@H](Cc2ccc(C(=O)O)cc2)NC(=O)[C@H](Cc2ccc(C(N)=O)cc2)NC(=O)[C@](C)(CO)NC(=O)[C@H](Cc2c[nH]c3c(Cl)cccc23)NC(=O)[C@H](Cc2ccc(C(=O)O)nc2)NC(=O)[C@H](CC(N)=O)NC(=O)[C@H]2C[C@H](O)CN2C(=O)[C@H](Cc2c[nH]c3ncccc23)NC(=O)[C@@H]2CC[C@@H](O)CN2C(=O)[C@H](Cc2ccncc2)NC1=O", "note": "[SEQ ID NO. 57] (cyclo([4Pal][Pip(5R-OH)][Trp(7-aza)][dHyp]N[X25][Trp(7-Cl)][αMeS][Phe(4-CONH2)][Phe(4-COOH)][Sar][Trp(βS-Me,7-OMe)][X1][Nle]))", "values": [
      {"measurement": "Kd", "setting": "[2]", "result": 0.09, "unit": "nM"},
      {"measurement": "Kd", "setting": "[3]", "result": "> 1000", "unit": "nM"},
      {"measurement": "IC50", "setting": "[4]", "result": 0.8, "unit": "nM"}
    ]},
    {"smiles": "CCCC[C@@H]1NC(=O)[C@@H]2CC[C@@H](C2)NC(=O)[C@H]([C@@H](C)c2c[nH]c3c(OC)cccc23)NC(=O)CN(C)C(=O)[C@H](Cc2ccc(O)cc2)NC(=O)[C@H](Cc2ccc(C(=O)O)cc2)NC(=O)[C@](C)(CO)NC(=O)[C@H](Cc2c[nH]c3c(Cl)cccc23)NC(=O)[C@H](Cc2ccncc2)NC(=O)[C@H](CC(N)=O)NC(=O)CN(CC)C(=O)[C@H](Cc2c[nH]c3ccccc23)NC(=O)[C@@H]2CNCCN2C(=O)[C@H](Cc2ccncc2)NC1=O", "note": "[SEQ ID NO. 94] (cyclo([4Pal][Trp(7-Cl)][αMeS][Phe(4-COOH)]Y[Sar][Trp(βS-Me,7-OMe)][X1][Nle][4Pal][Pip(4-aza)]W[NEtG]N))", "values": [
      {"measurement": "Kd", "setting": "[2]", "result": 0.07, "unit": "nM"},
      {"measurement": "Kd", "setting": "[3]", "result": "> 1000", "unit": "nM"},
      {"measurement": "IC50", "setting": "[4]", "result": 0.8, "unit": "nM"}
    ]}
  ]
}
